Results: patent publication US20250381198A1 (Melt Pharmaceuticals, Inc., priority 2024, published 2025)
Marks after values point to notes of the source that are not given here.

Tested on: subjects undergoing cataract extraction with lens replacement (CELR)
Experiment: Phase 3: adverse events (safety analysis set)
Type: in vivo, human
Procedure: The safety of MELT-300 was performed at baseline, in the course of surgery (intraoperatively), postoperatively on Day 1, and on Day 3+1 day post dose of study medication. Safety assessment included monitoring of AEs, vital sign measurements, and physical examinations.
An overview of adverse events (AEs) is provided in TABLE 57 for the safety analysis set. Reported data includes an overall summary of the presence of any AEs, treatment-emergent ocular adverse events (TEAEs), treatment-related TEAEs, TEAE of special interest (TEAESI), serious AEs (SEAs), and treatment-emergent SAEs (TESAE). Categories were not mutually exclusive. Results include the number of subjects, percent of subjects, and number of events in each category, respectively. A summary of treatment-emergence adverse events (TEAEs) by location, system organ class, and preferred term for the safety analysis set is provided in TABLE 58. A summary of treatment-related treatment-emergent adverse events (TRTEAEs) by system organ class, and preferred term for the safety analysis set is provided in TABLE 59. No SAEs (overall), TESAEs, or treatment-related TESAEs were observed. No SAEs resulting in death or discontinuation of the study was observed.

[1] = Location: Non-Ocular, Safety Analysis Set
[2] = Location: Non-Ocular, Safety analysis set
[3] = Location: Ocular, Safety Analysis Set
[4] = Location: Ocular, Safety analysis set

Cc1ncc2n1-c1ccc(Cl)cc1C(c1ccccc1F)=NC2 [Midazolam, 8-chloro-6-(2-fluorophenyl)-1-methyl-4H-imidazo[1,5-a][1,4]benzodiazepine]
2 (2.2) n (%): Any TEAESI, subjects [2] | Any Treatment-Related TEAE, subjects [2] | Any TEAESI, subjects [4]
1 #: Any Treatment-Related TEAESI, events [2] | TEAESI: Cardiovascular AEs, events [2] | TEAESI: Respiratory AEs, events [2] | Any Treatment-Related TEAE, events [4]
2 #: Any TEAESI, events [2]
3 #: Any Treatment-Related TEAE, events [2]
0 n: TEAE: Amnesia [1] | TEAE: Anxiety [1] | TEAE: Back pain [1] | TEAE: Balance disorder [1] | TEAE: Blood pressure increased [1] | TEAE: Blood pressure systolic increased [1] | TEAE: Bradycardia [1] | TEAE: Cardiac disorders (System Organ Class) [1] | TEAE: Cough [1] | TEAE: Dental local anaesthesia [1] | TEAE: Dizziness [1] | TEAE: Fatigue [1] | TEAE: Gastrointestinal disorders (System Organ Class) [1] | TEAE: General disorders and administration site conditions (System Organ Class) [1] | TEAE: Hiccups [1] | TEAE: Hypertension [1] | TEAE: Hypoaesthesia oral [1] | TEAE: Infections and infestations (System Organ Class) [1] | TEAE: Injury, poisoning and procedural complications (System Organ Class) [1] | TEAE: Investigations (System Organ Class) [1] | TEAE: Lethargy [1] | TEAE: Musculoskeletal and connective tissue disorders (System Organ Class) [1] | TEAE: Myalgia [1] | TEAE: Nasal Discomfort [1] | TEAE: Nausea [1] | TEAE: Neck pain [1] | TEAE: Oxygen saturation decreased [1] | TEAE: Post procedural hypotension [1] | TEAE: Procedural nausea [1] | TEAE: Procedural vomiting [1] | TEAE: Product after taste [1] | TEAE: Product issues (System Organ Class) [1] | TEAE: Psychiatric disorders (System Organ Class) [1] | TEAE: Pyrexia [1] | TEAE: Sinusitis [1] | TEAE: Surgical and medical procedures (System Organ Class) [1] | TEAE: Tachycardia [1] | TEAE: Taste disorder [1] | TEAE: Vascular disorders (System Organ Class) [1] | TEAE: Abnormal sensation in eye [3] | TEAE: Corneal abrasion [3] | TEAE: Corneal oedema [3] | TEAE: Diplopia [3] | TEAE: General disorders and administration site conditions (System Organ Class) [3] | TEAE: Glare [3] | TEAE: Injury, poisoning and procedural complications (System Organ Class) [3] | TEAE: Installation site pain [3] | TEAE: Lacrimation increased [3] | TEAE: Ocular discomfort [3] | TEAE: Photophobia [3] | TEAE: Photopsia [3] | TEAE: Procedural pain [3] | TEAE: Visual field defect [3] | TEAE: Visual impairment [3]
6 (6.7) n (%): Any Unexpected TEAE, subjects [4]
15 #: Any AE, events [4] | Any TEAE, events [4]
10 (11.2) n (%): Any AE, subjects [4] | Any TEAE, subjects [4]
0 #: Any Grade 3+ TEAE, events [2] | Any SAE, events [2] | Any TEAE Resulting in Death, events [2] | Any TEAE Resulting in Study Drug Interruption, events [2] | Any TEAE Resulting in Study Drug Withdrawal, events [2] | Any TESAE, events [2] | Any Treatment-Related TEAE Resulting in Death, events [2] | Any Treatment-Related TESAE, events [2] | Any Unexpected TEAE, events [2] | Any Unexpected Treatment-Related TEAE, events [2] | TEAESI: Abuse-related AEs, events [2] | TEAESI: Ketamine emergence delirium, events [2] | TEAESI: Neurocognitive AEs, events [2] | TEAESI: Oral/pharyngeal AEs, events [2] | TEAESI: Oversedation requiring the use of flumazenil, events [2] | Any Grade 3+ TEAE, events [4] | Any Grade 3+ Treatment-Related TEAE, events [4] | Any SAE, events [4] | Any TEAE Resulting in Death, events [4] | Any TEAE Resulting in Study Drug Interruption, events [4] | Any TEAE Resulting in Study Drug Withdrawal, events [4] | Any TEAESI, events [4] | Any TESAE, events [4] | Any Treatment-Related TEAESI, events [4] | Any Treatment-Related TESAE, events [4] | Any Unexpected Treatment-Related TEAE, events [4]
7 (7.9) n (%): Any AE, subjects [2]
0 n (%): Any Grade 3+ TEAE, subjects [2] | Any SAE, subjects [2] | Any TEAE Resulting in Death, subjects [2] | Any TEAE Resulting in Study Drug Interruption, subjects [2] | Any TEAE Resulting in Study Drug Withdrawal, subjects [2] | Any TESAE, subjects [2] | Any Treatment-Related TEAE Resulting in Death, subjects [2] | Any Treatment-Related TESAE, subjects [2] | Any Unexpected TEAE, subjects [2] | Any Unexpected Treatment-Related TEAE, subjects [2] | TEAESI: Abuse-related AEs, subjects [2] | TEAESI: Ketamine emergence delirium, subjects [2] | TEAESI: Neurocognitive AEs, subjects [2] | TEAESI: Oral/pharyngeal AEs, subjects [2] | TEAESI: Oversedation requiring the use of flumazenil, subjects [2] | Any Grade 3+ TEAE, subjects [4] | Any Grade 3+ Treatment-Related TEAE, subjects [4] | Any SAE, subjects [4] | Any TEAE Resulting in Death, subjects [4] | Any TEAE Resulting in Study Drug Interruption, subjects [4] | Any TEAE Resulting in Study Drug Withdrawal, subjects [4] | Any TESAE, subjects [4] | Any Treatment-Related TEAESI, subjects [4] | Any Treatment-Related TESAE, subjects [4]
9 #: Any AE, events [2] | Any Unexpected TEAE, events [4]
4 (4.5) n (%): Any TEAE, subjects [2]
5 #: Any TEAE, events [2]
1 (1.1) n (%): Any Treatment-Related TEAESI, subjects [2] | TEAESI: Cardiovascular AEs, subjects [2] | TEAESI: Respiratory AEs, subjects [2] | Any Treatment-Related TEAE, subjects [4]
